In one assay the test system is A549 lung cancer cells. The assay can be described thus: alamar blue cell viability assay, A549. The assay is classed as cell-based, human. An excerpt: FIG. 9. Heat map of the screening results. Scale: 0 (red), complete inhibition; 1 (green), no inhibition. Screening of the rapafucin library for toxicity hits against A549 lung cancer cells using alamar blue assay.
A 45,000 compound and 3000 pool rapafucin library were screened using the alamar blue cell viability assay with the human non-small cell lung cancer (NSCLC) cell line A549. […] Several potent rapafucin hits were discovered to inhibit cell proliferation of A549. […] Each was resynthesized on preparative scale, purified by silica gel chromatography, followed by HPLC purification, and subjected to a series of detailed structure characterization (schemes I and II; FIGS. 10-14).
Dose-dependent inhibition of cell proliferation by A18 and E11 was next evaluated in several other human cancer cell lines, including breast cancer HCC1954, pancreatic cancer PANC10.05, leukemia Jurkat T and colon cancer RKO (FIGS. 1b and 1c). […] (FIGS. 1 and 9; Table 3)
For orientation: Resazurin is reduced to fluorescent resorufin, in cell work by metabolically active cells.

The subject of the next assay is HEK 293T FLAG-Glut1. As to the kind of experiment: alamar blue assay, HEK 293T Glut1 overexpression cells. The assay is classed as cell-based. The note with it: for IC50: HEK 293T FLAG-Glut1. An excerpt:
(§1) FIGS. 20A-20C. E11 is a specific inhibitor of Glut1. (a) Glut1 and Glut3 protein levels of wild type, Glut1 and Glut3 overexpression cells analyzed by western blotting. (b)(c) Inhibition of cell proliferation in HEK293T, Glut1 and Glut3 overexpression cells by A18 and E11.
(§2) Up to now, at least 14 different isoforms of GLUTs have been identified in human cells. It was then asked whether A18 and E11 are specific inhibitors of GLUT1. To answer this question, colon cancer DLD-1 wild type and GLUT1 gene knock out cell lines were chosen as a cell model (FIG. 4a). […] GLUTs that are most relevant to cancer are Glut1 and Glut3. To obtain additional evidence, Glut1 and Glut3 in HEK 293T cells were overexpressed and an alamar blue cell viability assay was performed again. […] (see FIGS. 4, 19, 20, 26; Table 4).

The subject of the next assay is HEK 293T FLAG-Glut3. The assay can be described thus: alamar blue assay, HEK 293T Glut3 overexpression cells. The assay is classed as cell-based.
Excerpt: as §1, §2

Assay [1] addresses T1, GLUT1 (Homo sapiens, UniProt P11166).
T1 construct: endogenous in cells; host or cells: erythrocyte (RBC-derived) ghosts
T1 sequence (P11166 1-492): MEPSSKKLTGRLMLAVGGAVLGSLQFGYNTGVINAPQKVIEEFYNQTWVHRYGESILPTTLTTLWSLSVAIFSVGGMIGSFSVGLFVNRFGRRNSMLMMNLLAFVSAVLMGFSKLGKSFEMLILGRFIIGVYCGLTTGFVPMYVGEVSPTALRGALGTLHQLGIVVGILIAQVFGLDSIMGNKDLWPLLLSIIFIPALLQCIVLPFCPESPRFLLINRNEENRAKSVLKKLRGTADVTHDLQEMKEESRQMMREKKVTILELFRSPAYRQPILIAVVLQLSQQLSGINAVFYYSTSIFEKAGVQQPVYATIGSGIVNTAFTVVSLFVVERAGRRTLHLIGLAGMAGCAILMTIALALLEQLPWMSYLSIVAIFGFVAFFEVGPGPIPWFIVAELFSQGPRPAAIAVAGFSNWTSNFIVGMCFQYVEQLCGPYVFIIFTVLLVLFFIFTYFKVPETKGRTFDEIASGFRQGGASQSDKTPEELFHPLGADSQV
As to the kind of experiment: 3-O-methyl-D-[3H] glucose uptake in human red blood cells. The assay is classed as cell-based. The note with it: RBCs; read-out: IC50 3H-labeled 3-O-methylglucose uptake. An excerpt: (§3) FIGS. 3A-3D. Inhibition of Glucose Transport by A18 and E11. (a) Inhibition of 3-O-methyl-D-[3H] glucose uptake in human red blood cells by A18. (b) Inhibition of 3-O-methyl-D-[3H] glucose uptake in human red blood cells by E11. (c) Inhibition of 3-O-methyl-D-[3H] glucose uptake in erythrocyte ghosts by A18. (d) Inhibition of 3-O-methyl-D-[3H] glucose uptake in erythrocyte ghosts by E11.
(§4) A18 and E11 were previously shown to have a broad spectrum of anticancer activity. […] To test this hypothesis, red blood cells (RBCs) were applied as a cell model because RBCs express Glut1 as their sole glucose transporter and have been frequently used in studying glucose transport. […] To eliminate other possibilities, the glucose uptake assays were repeated in RBC-derived ghosts, in which all the intracellular proteins and enzymes were removed and only membrane-bound and membrane-associated proteins remained. […] (see FIGS. 2, 3 and 15-18)

In assay [2] the target is T1, GLUT1. The assay can be described thus: 3-O-methyl-D-[3H] glucose uptake in RBC-derived ghosts. Format: cell-based.
Excerpt: as §3, §4

For a further assay, the system named is DLD-1 wild type. As to the kind of experiment: 2-deoxy-D-[3H] glucose uptake in DLD-1 wild type cells. Format: cell-based.
Excerpt: (§5) FIGS. 4A-4B. E11 is a specific inhibitor of Glut1. (a) Glut1 protein levels of DLD-1 wild type and knock out cells analyzed by western blotting. (b) Inhibition of 2-deoxy-D-[3H] glucose uptake in DLD-1 wild type and knock out cells by E11 or A18.
as §2

Assay [3] concerns DLD-1 GLUT1 gene knock out cells. The assay can be described thus: 2-deoxy-D-[3H] glucose uptake in DLD-1 GLUT1 knock out cells. Format: cell-based.
Excerpt: as §5, §2

The target in assay [4] is T1, GLUT1. As to the kind of experiment: pulldown with biotin-rapafucin conjugates from RBC-derived ghosts lysate, anti-GLUT1 Western blot. Format: binding. The conditions noted are these: for binding to GLUT1 in pulldown assay: RBC-derived ghosts cell lysate, Western blot; for competition of the binding of the other rapafucin's probe to GLUT1: pulldown, A18 probe versus E11 and vice versa. An excerpt: FIGS. 6A-6B. Identification of direct interaction of A18 and E11 to Glut1. Glut1 protein levels of A18 (a) or E11 (b) pull down samples analyzed by western blotting.
After showing that GLUT1 was very likely to be the target of A18 and E11, the direct interaction of A18 and E11 to GLUT1 was then examined. A series of biotin or diazrine-alkyne rapafucin conjugates through different positions were synthesized. […] Importantly, the binding of the biotin-rapafucin probe to GLUT1 is competed by rapafucin. […] (FIGS. 6, 21, 22 and 27)
Background: In western blotting, separated proteins are transferred to a membrane and probed.

The subject of a further assay is ERK, AKT or JNK. The assay can be described thus: Western blot, phosphorylation of ERK, AKT or JNK. Format: cell-based. An excerpt: Whether A18 and E11 treatment affect key cell growth signaling proteins was examined next. […] But it has no effects on the phosphorylation of ERK, AKT or JNK (FIG. 7). As previously reported, AMPK is likely to act as the key link between the ATP reduction and the subsequent cancer cell inhibition. (FIGS. 7 and 23-25). Based on the data reported here, the working model for A18 and E11 was proposed as outlined in FIG. 8. […] These led to upregulation of phosphorylation of AMPK and downregulation of phosphorylation of S6K. […] (FIG. 8)

Read-outs that look alike come from different tables or passages of the source.

By IC50 is commonly meant the concentration at which inhibition is half-maximal. For the compound Gly-^MSerBu-Nal-^MAla [E11], the IC50 with A549 lung cancer cells turned out to be 367 nM; in the assay with HEK 293T FLAG-Glut1, 658 nM; at GLUT1 [1] it was 74.2 nM. For the same compound, the “inhibition in alamar blue cell viability assay” value in the assay with HEK 293T FLAG-Glut1 (GLUT1 overexpression HEK 293T cells) is “kept partial inhibitory activity”; in the assay on HEK 293T FLAG-Glut3 (GLUT3 overexpression HEK 293T cells), “didn't show any inhibition”. In addition, the “IC50 alamar blue assay” value with HEK 293T FLAG-Glut3 (HEK 293T FLAG-Glut3) was “No activity”. For the same compound, the IC50 glucose uptake entry against GLUT1 [2] was “totally lost its inhibitory activity”. In addition, the “inhibition of 2-deoxy-D-glucose uptake” value in the assay on DLD-1 wild type is reported as “kept inhibitory activity”; in assay [3], “didn't show any inhibition”. Moreover, the “binding to GLUT1 in pulldown assay” value at GLUT1 [4] was “can bind directly to GLUT1”. Also, at GLUT1 [4], the “competition of the binding of the other rapafucin's probe to GLUT1” value was “cannot be competed”. Besides, the “phosphorylation of ERK, AKT or JNK” value in the assay on ERK, AKT or JNK is “no effects”.

Regarding `CC[C@@H](C)[C@H]1C(=O)NCC(=O)N(C)CC/C=C/C(=O)OCC(C)(C)C(=O)C(=O)N2CCCC[C@H]2C(=O)O[C@H](CCc2ccc(OC)c(OC)c2)c2cccc(c2)NC(=O)CCC(=O)N(C)[C@@H](CC(C)C)C(=O)N[C@H](Cc2ccccc2)C(=O)N1C` [A18], the IC50 in the assay on A549 lung cancer cells (Homo sapiens) turned out to be 189 nM; in the assay with HEK 293T FLAG-Glut1 (Homo sapiens), 573 nM; with HEK 293T FLAG-Glut3 (Homo sapiens, HEK 293T FLAG-Glut3), 2350 nM; at GLUT1 [1], 34.2 nM; against GLUT1 [2], 49.5 nM. Besides, the “inhibition of 2-deoxy-D-glucose uptake” value (with DLD-1 wild type; in assay [3]) was “strongly inhibited” each time. Further, at GLUT1 [4], the “binding to GLUT1 in pulldown assay” value is reported as “can bind directly to GLUT1”. Further, the “competition of the binding of the other rapafucin's probe to GLUT1” value on GLUT1 [4] is listed as “vice versa”. Further, the “phosphorylation of ERK, AKT or JNK” value in the assay with ERK, AKT or JNK is reported as “no effects”.

The values are drawn from patent publication US11708391B2, “Rapaglutins, novel inhibitors of GLUT and use thereof” (The Johns Hopkins University, priority 2016, dated 2023).
